This passage reports EC50 results from patent publication US9242933B2 (AbbVie Deutschland GmbH & Co. KG, priority 2007, dated 2016).

The target of the assay is T1, human mGlu2 receptor (Homo sapiens, UniProt Q14416).
T1 construct: expressed in transfected cells; host or cells: HEK293
T1 sequence (Q14416 19-872): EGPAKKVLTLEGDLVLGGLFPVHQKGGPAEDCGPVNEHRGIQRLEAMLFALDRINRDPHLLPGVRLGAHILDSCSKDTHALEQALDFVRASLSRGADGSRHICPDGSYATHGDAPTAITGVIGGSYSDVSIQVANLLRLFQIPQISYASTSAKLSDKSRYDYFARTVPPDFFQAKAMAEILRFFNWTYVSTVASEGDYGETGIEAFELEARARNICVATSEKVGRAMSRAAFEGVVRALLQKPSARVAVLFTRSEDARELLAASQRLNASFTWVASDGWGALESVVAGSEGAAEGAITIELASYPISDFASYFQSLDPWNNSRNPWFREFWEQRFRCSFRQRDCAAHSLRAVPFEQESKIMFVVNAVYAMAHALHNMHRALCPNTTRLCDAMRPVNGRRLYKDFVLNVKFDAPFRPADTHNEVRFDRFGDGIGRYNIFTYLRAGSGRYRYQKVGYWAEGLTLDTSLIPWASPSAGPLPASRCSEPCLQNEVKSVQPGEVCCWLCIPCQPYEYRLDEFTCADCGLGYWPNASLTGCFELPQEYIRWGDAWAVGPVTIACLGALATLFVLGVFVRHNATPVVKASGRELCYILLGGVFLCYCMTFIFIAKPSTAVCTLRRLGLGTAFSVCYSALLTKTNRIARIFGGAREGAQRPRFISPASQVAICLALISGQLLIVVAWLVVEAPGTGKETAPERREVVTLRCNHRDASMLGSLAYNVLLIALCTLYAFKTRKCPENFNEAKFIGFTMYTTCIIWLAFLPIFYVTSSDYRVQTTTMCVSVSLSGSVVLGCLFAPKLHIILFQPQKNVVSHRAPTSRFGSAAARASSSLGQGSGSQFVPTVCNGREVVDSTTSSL
In words: FLIPR intracellular Ca2+ assay, potentiation of glutamate response in HEK293 clone expressing mGlu2 receptor, rGLAST and Galpha16. Conditions: 1 μM glutamate added ten minutes after test compound, HEK293 cells with human mGlu2, rGLAST, Galpha16, read-out: EC50 values of potentiation effect to glutamate. It is filed as cell-based. From the text:
The compounds of the present invention can be tested e.g. by evaluating intracellular Ca^2+ concentrations in cells permanently expressing human mGlu receptor, the rat glutamate transporter rGLAST and the Galpha16 subunit of the G-protein complex under standard conditions in a fluorometric imaging plate reader (FLIPR, Molecular Devices, Union City, Calif. 94587, USA) by measuring the response of the cells to a test compound in the absence of presence of glutamate. The FLIPR assay is a common functional assay to monitor native or recombinant Galphaq-coupled receptors, and native or recombinant receptors normally linked to other G-protein signalling cascades, which are coupled to calcium through co-expression of an alpha subunit of a promiscuous or chimeric G-protein. In the assay the increase of intracellular calcium is measured through a calcium-dependent fluorescent dye (e.g. Fluo-4 AM) in the FLIPR instrument.
For the purpose of the present study, a cell line permanently expressing a human mGlu receptor, such as the mGlu2 receptor, the rat glutamate transporter rGLAST and the GalphaG16 may be generated by transfection as described in the examples. For selection of a suitable cell clone and also the subsequent measurements, the selected clone the cells will be plated on suitable multiwell plates in a suitable medium (e.g. DMEM Glutamax (GIBCO #21885-025)/10% dialyzed FCS). Cells may be selected by gentamycin treatment as described in the examples. Cells will then be loaded with a suitable Ca^2+ sensitive fluorescence dye, e.g. with 2 μM Fluo-4 AM (Molecular Probes, F14201). Cells will then be washed with a suitable buffer (e.g. HEPES) and the thus treated plates will be measured in a fluorometric imaging plate reader (e.g. FLIPR, Molecular Devices, Union City, Calif. 94587, USA).
The compounds of the present invention were tested in the above-described FLIPR assay using the selected cell clone. Increased intracellular calcium levels were quantified following addition of test compound (agonism), as well as following addition of a submaximal concentration of glutamate (potentiation).
For the determination of the effect of the test compound by itself (agonism) or by increasing the response to a submaximal concentration (e.g. 1 μM) of glutamate (potentiation), the resulting signal is determined by subtraction of the background fluorescence from the maximal fluorescent peak height of the respective response. In the FLIPR instrument the compound is given to the cell and its fluorescence response quantified by the FLIPR instrument (agonism). The concentration at which the compound exerts half its maximal effect is named the ‘effective concentration 50’ or ‘EC50’. The maximal effect induced by the test substance is normalized to the maximal effect exerted by 100 μM glutamate (set at 100%).
After addition of the test compound to the plate, a submaximal concentration of glutamate (e.g. 1 μM glutamate) will be added. A potentiator enhances the response of the receptor to glutamate. The response to glutamate in the presence of test compound is quantified. The concentration at which the test compound is able to exert half its maximal potentiation effect to glutamate is named the ‘EC50’. The maximal response to the submaximal concentration of glutamate (e.g. 1 micromolar glutamate) in the presence of test compound is normalized to the maximal effect exerted by 100 micromolar glutamate (set at 100%). Least squares curve fitting with a four-parameter equation is then applied to the resulting dose-response curve to determine the resulting EC5O values (Graph Pad Prism).
For the purpose of the present study, a cell line permanently expressing the human mGlu2 receptor, the rat glutamate transporter rGLAST and the alpha subunit of G16 was generated by transfection. […]
As usually defined, the EC50 is the concentration that produces a half-maximal response. For “2-Propyl-6-{[3-(4-trifluoromethyl-phenyl)-1H-pyrazol-4-ylmethyl]-amino}-2,3-dihydro-isoquinolin-1-one [Example 584]”, the concentration giving a half-maximal response (EC50) was less than 1 µM.

For the compound `CCCC(=O)c1ccc(NCc2ccc(CC)s2)cc1` [Example 9, 1-{4-[(5-Ethylthiophen-2-ylmethyl)amino]phenyl}butan-1-one], the EC50 is 1 to 10 µM.

`CCCC(=O)c1ccc(NCc2ccco2)cc1` [Example 13, 1-{4-[(Furan-2-ylmethyl)amino]phenyl}butan-1-one]: the EC50 was 1 to 10 µM.

As for `CCCC(=O)c1ccc(NCc2cccnc2)cc1` [Example 16, 1-{4-[(Pyridin-3-ylmethyl)amino]phenyl}butan-1-one], the EC50 was 1 to 10 µM.

For `CCCC(=O)c1ccc(NCc2ccc(COC(C)=O)o2)cc1` [Example 23, Acetic acid 5-[(4-butyrylphenylamino)methyl]furan-2-ylmethyl ester], the EC50 fell in the range of 1 to 10 µM.

With `CCCC(=O)c1ccc(NCc2ccc3ncccc3c2)cc1` [Example 25, 1-{4-[(Quinolin-6-ylmethyl)amino]phenyl}butan-1-one], the EC50 is 1 to 10 µM.

As for `CCCC(=O)c1ccc(NCc2ccc(-c3ccc(S(N)(=O)=O)cc3)o2)cc1` [Example 35, 4-{5-[(4-Butyrylphenylamino)methyl]furan-2-yl}benzenesulfonamide], the EC50 lay within 1 to 10 µM.

Turning to `CCCC(=O)c1ccc(NCc2cnccc2-c2cccc(Br)c2)cc1` [Example 37, 1-(4-{[4-(3-Bromophenyl)pyridin-3-ylmethyl]amino}phenyl)butan-1-one], the EC50 lay within 1 to 10 µM.

On to `CCCC(=O)c1ccc(NCc2c[nH]nc2-c2cccs2)cc1` [Example 40, 1-(4-{[3-(Thiophen-2-yl)-1H-pyrazol-4-ylmethyl]amino}phenyl)butan-1-one], for which the EC50 was less than 1 µM.

Regarding `CCCC(=O)c1ccc(NCc2c[nH]nc2-c2ccc(C(F)(F)F)cc2)cc1` [Example 42], the EC50 was less than 1 µM.

As for `CCCC(=O)c1ccc(NCc2c(-c3ccccc3)noc2C)cc1` [Example 43, 1-{4-[(5-Methyl-3-phenylisoxazol-4-ylmethyl)amino]phenyl}butan-1-one], the EC50 is 1 to 10 µM.

For the compound `CCCC(=O)c1ccc(NCc2cnn(-c3ccccc3)c2C)cc1` [Example 45, 1-{4-[(5-Methyl-1-phenyl-1H-pyrazol-4-ylmethyl)amino]phenyl}butan-1-one], the EC50 was 1 to 10 µM.

`CCCC(=O)c1ccc(NCc2csc(-c3ccccc3)n2)cc1` [Example 46, 1-{4-[(2-Phenylthiazol-4-ylmethyl)amino]phenyl}butan-1-one]: the EC50 was 1 to 10 µM.

In the case of `CCCC(=O)c1ccc(NCc2c(C)nn(C)c2Oc2ccc(Cl)cc2)cc1` [Example 49, 1-(4-{[5-(4-Chlorophenoxy)-1,3-dimethyl-1H-pyrazol-4-ylmethyl]amino}phenyl)butan-1-one], the EC50 lay within 1 to 10 µM.

As for `CCCC(=O)c1ccc(NCc2c(C)nn(C)c2Oc2cccc(Cl)c2)cc1` [Example 50, 1-(4-{[5-(3-Chlorophenoxy)-1,3-dimethyl-1H-pyrazol-4-ylmethyl]amino}phenyl)butan-1-one], the EC50 is 1 to 10 µM.

Take `CCCC(=O)c1ccc(NCc2c(CSc3ccccc3)nn(C)c2Cl)cc1` [Example 52, 1-(4-{[5-Chloro-1-methyl-3-(phenylthiomethyl)-1H-pyrazol-4-ylmethyl]amino}phenyl)butan-1-one]: the half-maximal effective concentration (EC50) was 1 to 10 µM.

As for `CCCC(=O)c1ccc(NCc2c(C(F)(F)F)nn(C)c2Cl)cc1` [Example 53, 1-(4-{[5-Chloro-1-methyl-3-(trifluoromethyl)-1H-pyrazol-4-yl]methylamino}phenyl)butan-1-one], the EC50 was 1 to 10 µM.

With `CCCC(=O)c1ccc(NCc2cnn(CC)c2C)cc1` [Example 55, 1-{4-[(1-Ethyl-5-methyl-1H-pyrazol-4-ylmethyl)amino]phenyl}butan-1-one], the EC50 is 1 to 10 µM.

Regarding `CCCC(=O)c1ccc(NCc2c(C)nn(-c3ccccc3)c2C)cc1` [Example 56, 1-{4-[(3,5-Dimethyl-1-phenyl-1H-pyrazol-4-ylmethyl)amino]phenyl}butan-1-one], the EC50 lay within 1 to 10 µM.

With `CCCC(=O)c1ccc(NCc2ccnn2-c2ccccc2)cc1` [Example 57, 1-{4-[(2-Phenyl-2H-pyrazol-3-ylmethyl)amino]phenyl}butan-1-one], the EC50 was 1 to 10 µM.

For `CCCC(=O)c1ccc(NCc2c(C)nn(C(C)(C)C)c2C)cc1` [Example 58, 1-{4-[(1-tert-Butyl-3,5-dimethyl-1H-pyrazol-4-ylmethyl)amino]phenyl)butan-1-one], the concentration giving a half-maximal response (EC50) is 1 to 10 µM.

As to `CCCC(=O)c1ccc(NCc2cnn(C)c2C)cc1` [Example 60, 1-{4-[(1,5-Dimethyl-1H-pyrazol-4-ylmethyl)amino]phenyl}butan-1-one], the EC50 lay in the range of 1 to 10 µM.

As for `CCCC(=O)c1ccc(NCc2cn[nH]c2)cc1` [Example 68, 1-{4-[(1H-Pyrazol-4-ylmethyl)amino]phenyl}butan-1-one], the EC50 was in the range of 1 to 10 µM.

As for `CCCC(=O)c1ccc(NCc2cnn(CCC)c2C)cc1` [Example 71], the EC50 was 1 to 10 µM.

Regarding `CCCC(=O)c1ccc(NCc2cnn(C)c2-c2ccccc2)cc1` [Example 73], the concentration giving a half-maximal response (EC50) is less than 1 µM.

On to `CCCC(=O)c1ccc(NCc2cnn(C(C)C)c2)cc1` [Example 75, 1-{4-[(1-Isopropyl-1H-pyrazol-4-ylmethyl)amino]phenyl}butan-1-one], for which the half-maximal effective concentration (EC50) is 1 to 10 µM.

Consider `CCCC(=O)c1ccc(NCc2c[nH]nc2-c2ccc(O)cc2)cc1` [Example 76, 1-(4-{[3-(4-Hydroxyphenyl)-1H-pyrazol-4-ylmethyl]amino}phenyl)butan-1-one], for which the EC50 is less than 1 µM.

Turning to `CCCC(=O)c1ccc(NCc2c[nH]nc2C(C)(C)C)cc1` [Example 77, 1-{4-[(3-tert-Butyl-1H-pyrazol-4-ylmethyl)amino]phenyl}butan-1-one], the EC50 is less than 1 µM.

Regarding `O=C1CCc2cc(NCc3c[nH]nc3-c3ccc(C(F)(F)F)cc3)ccc21` [Example 81, 5-{[3-(4-Trifluoromethylphenyl)-1H-pyrazol-4-ylmethyl]-amino}-indan-1-one], the EC50 fell in the range of 1 to 10 µM.

With `COc1ccccc1Oc1ccc(NCc2c[nH]nc2-c2ccc(C(F)(F)F)cc2)cc1` [Example 83, [4-(2-Methoxy-phenoxy)-phenyl]-[3-(4-trifluoromethylphenyl)-1H-pyrazol-4-ylmethyl]-amine], the half-maximal effective concentration (EC50) is less than 1 µM.

Take `COc1cc(NCc2c[nH]nc2C(C)(C)C)cc(OC)c1` [Example 116, (3-tert-Butyl-1H-pyrazol-4-ylmethyl)-(3,5-dimethoxyphenyl)-amine]: the EC50 was 1 to 10 µM.

With `CC(C)(C)c1n[nH]cc1CNc1ccc2c(c1)OCO2` [Example 117, Benzo[1,3]dioxol-5-yl-(3-tert-butyl-1H-pyrazol-4-ylmethyl)-amine], the EC50 fell in the range of 1 to 10 µM.

For `CN(C)S(=O)(=O)c1ccc(NCc2c[nH]nc2-c2ccc(C(F)(F)F)cc2)cc1` [Example 169, N,N-Dimethyl-4-{[3-(4-trifluoromethyl-phenyl)-1H-pyrazol-4-ylmethyl]-amino}-benzenesulfonamide], the EC50 fell in the range of 1 to 10 µM.

On to `CCCC(=O)c1ccc(NCc2c[nH]nc2-c2ccc(OC)cc2)cc1` [Example 209, 1-(4-{[3-(4-Methoxy-phenyl)-1H-pyrazol-4-ylmethyl]-amino}-phenyl)-butan-1-one], for which the EC50 was less than 1 µM.
